# Where a chain is given by its changes, count along the chain named.
# Columns and labels:
# [1] = target: T1, hY2 (Homo sapiens, UniProt P49146); experiment: Ca2+ mobilization assay (FLIPR) in KAN-Ts cells; format: cell-based; conditions: KANT-S cells, inhibition of PYY stimulated Ca2+ increase, read-out: hY2 pKB (converted)
# T1 construct: KAN-Ts endogenously expressing Y2 receptors were used; endogenous in cells; host or cells: KAN-Ts cells stably expressing chimeric G proteins
# T1 sequence (P49146 1-381): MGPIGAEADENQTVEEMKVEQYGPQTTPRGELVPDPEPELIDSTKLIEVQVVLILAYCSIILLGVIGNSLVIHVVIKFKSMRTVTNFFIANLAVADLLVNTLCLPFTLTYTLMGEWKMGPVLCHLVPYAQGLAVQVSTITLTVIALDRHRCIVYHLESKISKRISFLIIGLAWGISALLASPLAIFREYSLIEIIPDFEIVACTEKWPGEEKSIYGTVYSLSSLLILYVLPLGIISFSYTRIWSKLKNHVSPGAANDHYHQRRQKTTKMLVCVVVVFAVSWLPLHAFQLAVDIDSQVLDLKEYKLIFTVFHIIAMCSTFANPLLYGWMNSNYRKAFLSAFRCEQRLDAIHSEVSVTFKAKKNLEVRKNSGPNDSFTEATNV
# Procedure: The assay was performed using the fluorimetric imaging plate reader (FLIPR) format as described in Dautzenberg, F. M., Biochemical Pharmacology 2005, 69, 1493.
# KAN-Ts cells stably expressing chimeric G proteins were seeded at a density of 100,000 cells into poly-d-lysine coated 384-well blackwall, clear-bottom microtiter plates (Corning, N.Y.). One day later, the medium was removed and 50 μl loading medium DMEM high glucose, without serum, supplemented with 10 mM HEPES-acid, 0.1% BSA, 5 mM probenecid and 2 μM Fluo-3AM was added. Cells were loaded for 1 h at 37° C., washed twice with 50 μl assay buffer (5 mM HEPES-acid, 140 mM NaCl, 1 mM MgCl2, 5 mM KCl, 10 mM glucose) and then 30 μl assay buffer was added. Cells were further pre-incubated at room temperature before adding agonists or agonists plus antagonists in 20 μl assay buffer and then measured on a T-channel fluorometric imaging plate reader (FLIPR, Molecular Devices, Sunnyvale, Calif.).
# Antagonistic potency values were converted to apparent pKB values using a modified Cheng-Prusoff correction. Apparent pKB=−log IC50/1+[conc agonist/EC50]. Data below are expressed as mean±S.E.M.
# The in vitro antagonistic properties of the compound of formula (A) were confirmed using Ca^2+ measurement.
# [2] = target: MTP (Homo sapiens, UniProt P55157); experiment: MTP assay (triglyceride transfer between vesicles); format: biochemical; conditions: read-out: MTP pIC50 (converted)
# Procedure: MTP activity was measured using an assay similar to one described by J. R. Wetterau and D. B. Zilversmit in Chemistry and Physics of Lipids (1985) 38, 205-222.
# In order to prepare the donor and acceptor vesicles, the appropriate lipids in chloroform were put into a glass test tube and dried under a stream of nitrogen. A buffer containing 15 mM Tris-HCl (pH 7.5), 1 mM ethylenediamine tetra-acetic acid, 40 mM NaCl, 0.02% NaN3 (assay buffer) was added to the dried lipid. The mixture was vortexed briefly and the lipids were then allowed to hydrate for 20 minutes on ice. Vesicles were then prepared by bath sonication (using a Branson 2200 device) at room temperature for at most 15 minutes. Butylated hydroxytoluene was included in all vesicle preparations at a concentration of 0.1%. The lipid transfer assay mixture contained donor vesicles (40 nmole phosphatidylcholine, 7.5 mole % cardiolipin and 0.25 mole % glycerol tri[1-^14C]-oleate), acceptor vesicles (240 nmol phosphatidylcholine) and 5 mg bovine serum albumin in a total volume of 675 μl in a 1.5 ml microcentrifuge tube. Test compound was added dissolved in dimethylsulfoxide (0.13% final concentration). After 5 minutes of pre-incubation at 37° C., the reaction was started by the addition of MTP in 100 μl of a dialysis buffer. The reaction was stopped by the addition of 400 μl […] (DEAE)-52 cellulose (Sephadex) pre-equilibrated in 15 mM Tris-HCl (pH 7.5), 1 mM ethylenediamine tetra-acetic acid and 0.02% NaN3 (1:1 volume/volume). The mixture was agitated for 4 minutes and centrifuged for 2 minutes at maximum speed in an Eppendorf centrifuge (4° C.) to pellet the DEAE-52-bound donor vesicles. An aliquot of the supernatant containing the acceptor liposomes was counted and the [^14C]-counts were used to calculate the percent triglyceride transfer from donor to acceptor vesicles.
# Representative compounds of the present invention were measured for binding against the MTP receptor, as described above, with results as listed in Table 2 below.
# [3] = target: T2, human Y2 receptor (Homo sapiens, UniProt P49146); experiment: Neuropeptide Y2 radioligand binding assay, [125I]PYY, KAN-Ts cells; conditions: KANT-S cells, mean ± S.E.M., read-out: hY2 pKi (converted)
# T2 construct: KAN-Ts endogenously expressing Y2 receptors were used; endogenous in cells; host or cells: KAN-Ts cells
# T2 sequence (P49146 1-381): T1 sequence (P49146 1-381)
# Procedure: (§1) Radioligand binding assays for the human and rat/mouse Y2 receptor were performed as described in Bonaventure, P., D. Nepomuceno, C. Mazur, B. Lord, D. A. Rudolph, J. A. Jablonowski, N. I. Carruthers and T. W. Lovenberg, J Pharmacol Exp Ther. 2004, 308, 1130.
# (§2) KAN-Ts endogenously expressing Y2 receptors were used, for the rat and mouse Y2 receptor, membranes from rat or mouse hippocampus were prepared. Membranes were incubated with [^125I]PYY (80 pM) in the presence or absence of test compound for 1 h at rt. The reaction was stopped by filtration through GF/C filter plates pre-soaked in 0.3% polyethylenimine and subsequently washed with Tris-HCl, 50 mM, 5 mM EDTA buffer. Plates were dried for 1 h in a 55° C. oven, scintillation fluid was added and the radioactivity was counted in a Packard TopCount. Specific binding to the NPY receptor subtypes was determined by radioactivity that was bound in the presence of 1 μM NPY.
# (§3) Apparent Ki values were calculated as K=IC50/(1+C/KD), where C is concentration of the radioligand and pKi=−log Ki. Data presented below are expressed as mean±S.E.M.
# [4] = target: T3, Y2 receptor binding sites in rat hippocampus (Rattus norvegicus, UniProt Q9ERC0); experiment: Ex vivo Y2 receptor occupancy in rats (autoradiography); conditions: SC administration (10 mg/kg)
# T3 construct: from tissue; host or cells: rat brain sections (hippocampus) after in vivo dosing
# T3 sequence (Q9ERC0 1-381): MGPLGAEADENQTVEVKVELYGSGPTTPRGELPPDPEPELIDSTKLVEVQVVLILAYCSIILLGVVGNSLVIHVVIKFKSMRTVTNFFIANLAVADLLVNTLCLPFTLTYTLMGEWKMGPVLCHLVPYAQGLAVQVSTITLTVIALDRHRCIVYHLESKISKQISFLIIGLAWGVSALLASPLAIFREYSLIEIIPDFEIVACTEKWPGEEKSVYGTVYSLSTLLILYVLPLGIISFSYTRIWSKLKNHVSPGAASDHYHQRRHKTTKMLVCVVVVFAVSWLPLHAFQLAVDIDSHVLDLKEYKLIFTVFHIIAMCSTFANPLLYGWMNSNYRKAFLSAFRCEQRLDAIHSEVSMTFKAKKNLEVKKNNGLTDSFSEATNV
# Procedure: The pharmacokinetic, blood-brain barrier penetration and ex vivo receptor occupancy studies were performed as described in Bonaventure, P., D. Nepomuceno, C. Mazur, B. Lord, D. A. Rudolph, J. A. Jablonowski, N. I. Carruthers and T. W. Lovenberg, J Pharmacol Exp Ther. 2004, 308, 1130.
# The compound of formula (A) was formulated in 20% hydroxypropylbetacyclodextrine. Subcutaneous (SC), oral (PO) or intravenous (IV) dosing was followed by blood sampling via cardiac puncture over a time course. Blood samples consisted of 250 μl samples taken from the heart using a 23-gauge needle into 1.5 ml micro-centrifuge tubes. Brains were removed from the animals and bisected down the midsagittal plane. One hemisphere was frozen on dry ice for ex vivo receptor binding autoradiography and the other was homogenized for LC/MS-MS analysis.
# Ex vivo receptor binding autoradiography was performed on brain sections. Twenty-micron-thick coronal sections at the level of the […] regions were collected and incubated for 10 min with 100 pM [^125I]PYY in Krebs-Ringer phosphate buffer (KRP) at pH 7.4 supplemented with 0.1% BSA, 0.05% bacitracin, and 1 μM BIBP-3226 for Y1 receptor occlusion. The sections were not washed prior to incubation and were incubated 10 minutes to avoid dissociation. Nonspecific binding was determined using adjacent sections incubated in the presence of 1 μM unlabelled hNPY. At the end of the incubation, sections were washed 4 times (4 minutes each) in ice cold buffer, dipped in deionized water and rapidly dried under a stream of cold air. Sections were exposed to a Fujifilm Imaging Plate (BAS-MS2025) for 12 hours. The Phosphor Imaging Plate was scanned using a Fuji Bio-Imaging Analyzer System (BAS-5000). The digitized computer images generated by the scanner were visualized and quantified using ImageGauge V3.12 software (Fujifilm).
# [5] = target: T4, rat Y2 receptor (Rattus norvegicus, UniProt Q9ERC0); experiment: Neuropeptide Y2 radioligand binding assay, [125I]PYY, rat hippocampus membranes; conditions: read-out: rY2 pKi (converted)
# T4 construct: membranes from rat or mouse hippocampus were prepared; from tissue; host or cells: rat hippocampus membranes
# T4 sequence (Q9ERC0 1-381): T3 sequence (Q9ERC0 1-381)
# Procedure: as §1, §2, §3
# [6] = target: T5, mouse Y2 receptor (Mus musculus, UniProt P97295); experiment: Neuropeptide Y2 radioligand binding assay, [125I]PYY, mouse hippocampus membranes; conditions: read-out: mY2 pKi (converted)
# T5 construct: membranes from rat or mouse hippocampus were prepared; from tissue; host or cells: mouse hippocampus membranes
# T5 sequence (P97295 1-381): T3 sequence (Q9ERC0 1-381) with L4V, L20P, S23P, P25H, V52I, Q163R, V175I, K247R, T266M, L371P
# Procedure: as §1, §2, §3
# Chain of MTP (P55157 19-894, species assumed): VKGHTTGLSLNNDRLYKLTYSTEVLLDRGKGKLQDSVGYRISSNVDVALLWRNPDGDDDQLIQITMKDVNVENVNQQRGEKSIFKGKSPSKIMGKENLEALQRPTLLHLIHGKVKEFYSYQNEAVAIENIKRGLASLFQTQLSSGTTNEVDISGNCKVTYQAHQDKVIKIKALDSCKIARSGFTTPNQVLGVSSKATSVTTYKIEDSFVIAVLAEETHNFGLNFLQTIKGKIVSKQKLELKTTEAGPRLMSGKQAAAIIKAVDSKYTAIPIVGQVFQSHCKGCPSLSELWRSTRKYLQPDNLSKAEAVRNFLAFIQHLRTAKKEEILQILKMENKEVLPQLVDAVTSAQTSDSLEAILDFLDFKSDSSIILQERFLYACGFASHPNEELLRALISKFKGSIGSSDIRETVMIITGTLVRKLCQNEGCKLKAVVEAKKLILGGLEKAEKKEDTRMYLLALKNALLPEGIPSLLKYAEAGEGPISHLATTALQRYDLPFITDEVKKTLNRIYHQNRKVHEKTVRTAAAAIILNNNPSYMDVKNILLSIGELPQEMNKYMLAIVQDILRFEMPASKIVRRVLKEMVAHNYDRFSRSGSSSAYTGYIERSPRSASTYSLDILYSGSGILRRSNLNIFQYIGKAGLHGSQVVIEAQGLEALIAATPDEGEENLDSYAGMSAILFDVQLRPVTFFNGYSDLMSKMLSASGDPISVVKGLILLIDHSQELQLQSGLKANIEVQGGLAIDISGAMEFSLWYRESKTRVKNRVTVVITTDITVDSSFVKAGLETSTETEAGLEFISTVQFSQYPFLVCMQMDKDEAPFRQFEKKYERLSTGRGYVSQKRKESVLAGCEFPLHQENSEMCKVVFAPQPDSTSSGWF
# Chain of MTP (P07237 18-508 partner, species assumed): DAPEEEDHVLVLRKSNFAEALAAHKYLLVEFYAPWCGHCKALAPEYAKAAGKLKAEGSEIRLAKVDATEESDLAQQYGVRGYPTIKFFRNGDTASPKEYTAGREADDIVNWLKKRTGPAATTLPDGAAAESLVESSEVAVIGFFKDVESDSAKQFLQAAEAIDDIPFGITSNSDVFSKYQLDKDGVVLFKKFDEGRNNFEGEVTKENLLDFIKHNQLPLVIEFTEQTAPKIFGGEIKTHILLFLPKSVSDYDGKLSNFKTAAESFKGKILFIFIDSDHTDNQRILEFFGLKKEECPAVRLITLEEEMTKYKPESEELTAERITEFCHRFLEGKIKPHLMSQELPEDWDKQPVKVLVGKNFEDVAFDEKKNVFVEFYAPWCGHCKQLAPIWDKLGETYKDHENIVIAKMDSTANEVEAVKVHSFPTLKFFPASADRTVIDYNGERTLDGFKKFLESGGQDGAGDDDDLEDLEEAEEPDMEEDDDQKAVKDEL
Kb [1] [nM],IC50 [2] [nM],Ki [3] [nM],"receptor occupancy at 10 mg/kg ([4]; rat, read-out: Y2 receptor occupancy in rat brain) [%]",Ki [5] [nM],Ki [6] [nM],SMILES,Y2 receptor occupancy in rat brain [4]
0.398,316,7.94,–,10,–,"CCN(CC)C(=O)C(c1ccccc1)N1CCN(c2ccc(NC(=O)c3ccccc3-c3cccnc3)cc2F)CC1 (single isomer, unassigned; (+)) [(+)-Cmpd (A), N-{4-[4-(Diethylcarbamoyl-phenyl-methyl)-piperazin-1-yl]-3-fluoro-phenyl}-2-pyridin-3-yl-benzamide]",–
0.794,6310,3.16,–,12,7.94,"CCN(CC)C(=O)C(c1ccccc1)N1CCN(c2ccc(NC(=O)c3ccccc3-c3cccnc3)cc2F)CC1 (single isomer, unassigned; (-)) [(−)-Cmpd (A), (−)-N-{4-[4-(Diethylcarbamoyl-phenyl-methyl)-piperazin-1-yl]-3-fluoro-phenyl}-2-pyridin-3-yl-benzamide]",–
6.31,50.1,7.59,–,25.1,–,"CCN(CC)C(=O)C(c1ccccc1)N1CCN(c2ccc(NC(=O)c3ccccc3-c3ccccc3)cc2F)CC1 (stereo not shown) [Cmpd (C), Biphenyl-2-carboxylic acid {4-[4-(diethylcarbamoyl-phenyl-methyl)-piperazin-1-yl]-3-fluoro-phenyl}-amide]",did not show any significant level of Y2 receptor occupancy

# The next lines start with the compound.
SMILES,Kb [1] [nM],IC50 [2] [nM],Ki [3] [nM],"receptor occupancy at 10 mg/kg ([4]; rat, read-out: Y2 receptor occupancy in rat brain) [%]",Ki [5] [nM],Ki [6] [nM],Y2 receptor occupancy in rat brain [4]
"CCNC(=O)C(c1ccccc1)N1CCN(c2ccc(NC(=O)c3ccccc3-c3cccnc3)cc2F)CC1 (racemic) [Cmpd (B), N-{4-[4-(ethylcarbamoyl-phenyl-methyl)-piperazin-1-yl]-3-fluorophenyl}-2-pyridin-3-yl-benzamide]",50.1,251,32.4,~40,–,–,–
"CCNC(=O)C(c1ccccc1)N1CCN(c2ccc(NC(=O)c3ccccc3-c3cccnc3)cc2F)CC1 (single isomer, unassigned; (+)) [(+)-Cmpd (B), N-{4-[4-(ethylcarbamoyl-phenyl-methyl)-piperazin-1-yl]-3-fluoro-phenyl}-2-pyridin-3-yl-benzamide]",–,3980,229,–,–,–,–
"CCNC(=O)C(c1ccccc1)N1CCN(c2ccc(NC(=O)c3ccccc3-c3cccnc3)cc2F)CC1 (single isomer, unassigned; (-)) [(−)-Cmpd (B), N-{4-[4-(ethylcarbamoyl-phenyl-methyl)-piperazin-1-yl]-3-fluoro-phenyl}-2-pyridin-3-yl-benzamide]",–,398,39.8,–,–,–,–

# Source: patent publication US8338426B2, “Piperazinyl derivatives useful as modulators of the neuropeptide Y2 receptor” (Janssen Pharmaceutica NV, priority 2007, dated 2012)
